Measured values as given in patent US12391652B2 (priority 2019, dated 2025).

How the values were obtained:
[1] = tested on: soybean rust fungus (Phakopsora pachyrhizi); experiment: Test Example 1: curative foliar spray against soybean rust on potted soybean; assay type: in vivo; conditions: for Efficacy (%): 2 ppm foliar spray on soybean (cv; Kurosengoku) 4 days after inoculation, lesion area 7 days after spraying vs untreated group
Experimental: Each of 5 parts of the Ra1 type crystal form, or the Ra4 type crystal form as comparison control, 35 parts of a mixture of white carbon and ammonium polyoxyethylene alkyl ether sulfate (weight ratio is 1:1) and 60 parts of water were mixed, and the mixture was then finely-ground by a wet grinding method to obtain a formulation. Water was then added to the formulation so as to be 2 ppm as the concentration of the Ra1 type crystal form or the Ra4 type crystal form to obtain dilutions respectively.
Each of plastic pots was filled with soil and thereto soybean (cv; Kurosengoku) seeds were sown and the soybeans were grown in a greenhouse for 15 days. Thereafter, an aqueous suspension of spores of soybean rust fungus (Phakopsora pachyrhizi) was spraying-inoculated. After the inoculation, the soybeans were placed under a dark and wet condition at 23° C. for 1 night and were further cultivated in a greenhouse for 3 days, and the above-mentioned diluted dilutions were sprayed to foliar parts so as to adhere adequately on the leaves of the above-mentioned soybean. After spraying the dilutions, the plants were air-dried and were placed under a dark and wet condition at only night, and after 7 days of the spraying, the lesion area was observed (lesion area in treated group).
Whereas, in the untreated group, the similar procedures to those of the treated group except that the Ra1 type crystal form or the Ra4 type crystal form were not applied, were carried out and the lesion area of soybean rust disease in the untreated group was observed (lesion area in untreated group).
From each of the lesion area in the treated group or the untreated group respectively, the efficacy in the treated group was calculated by the following “Equation 1”. Efficacy (%)=[1−(lesion area in the treated group/lesion area in the untreated group)]×100 [Equation 1]

[2] = tested on: blast fungus (Pyricularia oryzae); assay type: in vivo; conditions: for Efficacy (%): 50 ppm foliar spray on rice (cv; Hinohikari), 8 days outdoor, then 11 days in contact with infected rice plants, lesion area vs untreated group; for Efficacy compared to the Ra4 type crystal form: rice blast, 50 ppm

Row | Structure (SMILES) | Efficacy (%) [1] [%] | Efficacy compared to the Ra4 type crystal form ([1]; soybean rust, 2 ppm) | Efficacy (%) [2] [%] | Efficacy compared to the Ra4 type crystal form [2]
1 | CC1CC(C)(C)c2cccc(NC(=O)c3cn(C)nc3C(F)F)c21 (racemic) [Ra1 type crystal form, 3-(difluoromethyl)-1-methyl-N-(1,1,3-trimethyl-2,3-dihydro-1H-inden-4-yl)-1H-pyrazole-4-carboxamide] | 72 | higher efficacy compared to the Ra4 type crystal form |  | 
2 | CC1CC(C)(C)c2cccc(NC(=O)c3cn(C)nc3C(F)F)c21 (racemic) [Ra3 type crystal form, 3-(difluoromethyl)-1-methyl-N-(1,1,3-trimethyl-2,3-dihydro-1H-inden-4-yl)-1H-pyrazole-4-carboxamide] |  |  | 75 | higher efficacy compared to the Ra4 type crystal form
3 | CC1CC(C)(C)c2cccc(NC(=O)c3cn(C)nc3C(F)F)c21 (racemic) [Ra4 type crystal form, 3-(difluoromethyl)-1-methyl-N-(1,1,3-trimethyl-2,3-dihydro-1H-inden-4-yl)-1H-pyrazole-4-carboxamide, reference compound] | 54 |  | 50 | 
4 | CC1CC(C)(C)c2cccc(NC(=O)c3cn(C)nc3C(F)F)c21 (racemic) [Ra2 type crystal form, 3-(difluoromethyl)-1-methyl-N-(1,1,3-trimethyl-2,3-dihydro-1H-inden-4-yl)-1H-pyrazole-4-carboxamide] |  |  | 85 | higher efficacy compared to the Ra4 type crystal form
